# According to ChEMBL document CHEMBL2401692, “Synthesis, structure-activity relationships, and in vivo efficacy of the novel potent and selective anaplastic lymphoma kinase (ALK) inhibitor 5-chloro-N2-(2-isopropoxy-5-methyl-4-(piperidin-4-yl)phenyl)-N4-(2-(isopropylsulfonyl)phenyl)pyrimidine-2,4-diamine (LDK378) currently in phase 1 and phase …” (J Med Chem, 2013):
# Assays:
# [1] = biological target: Fibroblast growth factor receptor 2 (Homo sapiens, UniProt P21802); assay: Inhibition of FGFR2 (unknown origin) after 60 mins
# [2] = Oral bioavailability in Sprague-Dawley rat at 10 mg/kg; format: ADME, organism-based; details: in vivo
# [3] = biological target: Tyrosine-protein kinase SYK (Homo sapiens, UniProt P43405); assay: Inhibition of SYK (unknown origin) after 60 mins
# BaF3 = assay: cells; details: Mus musculus
# [4] = AUC in Beagle dog at 5 mg/kg, iv; format: ADME, organism-based, Canis lupus familiaris; parameters: dose 5 mg/kg, route intravenous; details: plasma
# [5] = Volume of distribution at steady state in cynomolgus monkey at 5 mg/kg, iv; format: ADME, organism-based, Macaca fascicularis; parameters: dose 5 mg/kg, route intravenous; details: in vivo, read-out: Vdss
# [6] = AUC in Sprague-Dawley rat at 10 mg/kg, po; format: ADME, organism-based; parameters: dose 10 mg/kg, route oral; details: plasma
# [7] = Tmax in Beagle dog at 5 mg/kg, iv; format: ADME, organism-based, Canis lupus familiaris; parameters: dose 5 mg/kg, route intravenous; details: in vivo
# [8] = biological target: Vascular endothelial growth factor receptor 2 (Homo sapiens, UniProt P35968); assay: Inhibition of TEL-fused KDR (unknown origin) by cell-based assay
# [9] = Half life in cynomolgus monkey at 5 mg/kg, iv; format: ADME, organism-based, Macaca fascicularis; parameters: dose 5 mg/kg, route intravenous; details: in vivo
# NCI-H2228 = details: Homo sapiens
# Description: Antitumor activity against human NCI-H2228 cells xenografted in po dosed Rowett nude rat assessed as tumor growth inhibition administered for 14 days measured 7 to 72 hrs post dosing
# [10] = Drug uptake in tumor of Rowett nude rat xenografted with human KARPAS299 cells at 50 mg/kg, po; format: ADME, organism-based, Neoplasm, KARPAS-299; parameters: dose 50 mg/kg, route oral; details: in vivo
# [11] = biological target: T1, Hepatocyte growth factor receptor (Homo sapiens, UniProt P08581); assay: Inhibition of TEL-fused MET (unknown origin) by cell-based assay
# [12] = AUC in BALB/c mouse at 5 mg/kg, iv; format: ADME, organism-based; parameters: dose 5 mg/kg, route intravenous; details: plasma
# [13] = Toxicity in po dosed Rowett nude rat xenografted with human NCI-H2228 cells; format: organism-based; details: in vivo
# [14] = biological target: Fibroblast growth factor receptor 4 (Homo sapiens, UniProt P22455); assay: Inhibition of FGFR4 (unknown origin) after 60 mins
# Fibroblast growth factor receptor 4, sequence (P22455 whole entry): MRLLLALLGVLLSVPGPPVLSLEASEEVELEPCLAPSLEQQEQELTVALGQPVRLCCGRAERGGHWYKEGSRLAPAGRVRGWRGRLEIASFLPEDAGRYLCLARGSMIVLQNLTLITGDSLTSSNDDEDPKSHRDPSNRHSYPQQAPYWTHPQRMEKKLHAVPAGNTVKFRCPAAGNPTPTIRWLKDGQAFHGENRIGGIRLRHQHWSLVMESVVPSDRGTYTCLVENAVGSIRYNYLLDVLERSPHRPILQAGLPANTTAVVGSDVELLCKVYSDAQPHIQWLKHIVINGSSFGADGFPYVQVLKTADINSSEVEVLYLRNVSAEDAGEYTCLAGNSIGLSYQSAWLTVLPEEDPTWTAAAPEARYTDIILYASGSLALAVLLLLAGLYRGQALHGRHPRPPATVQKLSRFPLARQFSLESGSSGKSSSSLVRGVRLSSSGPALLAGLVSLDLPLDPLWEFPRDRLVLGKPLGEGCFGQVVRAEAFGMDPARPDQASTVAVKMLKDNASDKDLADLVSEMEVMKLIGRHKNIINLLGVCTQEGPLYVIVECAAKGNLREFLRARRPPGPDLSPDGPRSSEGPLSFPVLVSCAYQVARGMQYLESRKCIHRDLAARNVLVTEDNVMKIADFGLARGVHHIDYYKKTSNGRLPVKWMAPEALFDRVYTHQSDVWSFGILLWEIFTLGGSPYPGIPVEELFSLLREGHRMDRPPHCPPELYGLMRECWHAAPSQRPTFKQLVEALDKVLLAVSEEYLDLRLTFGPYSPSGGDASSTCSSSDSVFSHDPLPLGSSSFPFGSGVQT
# Rhesus monkey = assay: Cardiotoxicity in monkey assessed as QTc prolongation; format: toxicity, organism-based, Macaca mulatta; details: in vivo
# [15] = Intrinsic clearance in mouse liver microsomes; format: ADME, Microsome; details: read-out: CLH
# [16] = biological target: Proto-oncogene tyrosine-protein kinase Src (Homo sapiens, UniProt P12931); assay: Inhibition of TEL-fused SRC (unknown origin) by cell-based assay
# Proto-oncogene tyrosine-protein kinase Src, sequence (P12931 2-536 limits assumed): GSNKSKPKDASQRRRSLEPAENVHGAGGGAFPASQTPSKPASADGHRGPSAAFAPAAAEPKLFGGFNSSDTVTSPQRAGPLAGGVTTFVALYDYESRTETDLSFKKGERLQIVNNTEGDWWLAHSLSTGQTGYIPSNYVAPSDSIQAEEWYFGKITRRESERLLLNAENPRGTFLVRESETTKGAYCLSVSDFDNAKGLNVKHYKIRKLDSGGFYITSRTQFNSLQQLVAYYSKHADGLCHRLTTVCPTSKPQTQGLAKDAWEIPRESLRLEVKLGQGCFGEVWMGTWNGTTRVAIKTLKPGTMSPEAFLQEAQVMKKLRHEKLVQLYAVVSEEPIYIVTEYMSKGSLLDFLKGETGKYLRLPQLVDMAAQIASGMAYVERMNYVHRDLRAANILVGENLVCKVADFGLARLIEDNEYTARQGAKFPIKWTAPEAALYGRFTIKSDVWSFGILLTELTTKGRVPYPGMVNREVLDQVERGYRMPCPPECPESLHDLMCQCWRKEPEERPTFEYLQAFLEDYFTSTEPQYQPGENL
# [17] = biological target: Tyrosine-protein kinase ABL1 (Homo sapiens, UniProt P00519); assay: Inhibition of ABL (unknown origin) after 60 mins
# Tyrosine-protein kinase ABL1, sequence (P00519 whole entry): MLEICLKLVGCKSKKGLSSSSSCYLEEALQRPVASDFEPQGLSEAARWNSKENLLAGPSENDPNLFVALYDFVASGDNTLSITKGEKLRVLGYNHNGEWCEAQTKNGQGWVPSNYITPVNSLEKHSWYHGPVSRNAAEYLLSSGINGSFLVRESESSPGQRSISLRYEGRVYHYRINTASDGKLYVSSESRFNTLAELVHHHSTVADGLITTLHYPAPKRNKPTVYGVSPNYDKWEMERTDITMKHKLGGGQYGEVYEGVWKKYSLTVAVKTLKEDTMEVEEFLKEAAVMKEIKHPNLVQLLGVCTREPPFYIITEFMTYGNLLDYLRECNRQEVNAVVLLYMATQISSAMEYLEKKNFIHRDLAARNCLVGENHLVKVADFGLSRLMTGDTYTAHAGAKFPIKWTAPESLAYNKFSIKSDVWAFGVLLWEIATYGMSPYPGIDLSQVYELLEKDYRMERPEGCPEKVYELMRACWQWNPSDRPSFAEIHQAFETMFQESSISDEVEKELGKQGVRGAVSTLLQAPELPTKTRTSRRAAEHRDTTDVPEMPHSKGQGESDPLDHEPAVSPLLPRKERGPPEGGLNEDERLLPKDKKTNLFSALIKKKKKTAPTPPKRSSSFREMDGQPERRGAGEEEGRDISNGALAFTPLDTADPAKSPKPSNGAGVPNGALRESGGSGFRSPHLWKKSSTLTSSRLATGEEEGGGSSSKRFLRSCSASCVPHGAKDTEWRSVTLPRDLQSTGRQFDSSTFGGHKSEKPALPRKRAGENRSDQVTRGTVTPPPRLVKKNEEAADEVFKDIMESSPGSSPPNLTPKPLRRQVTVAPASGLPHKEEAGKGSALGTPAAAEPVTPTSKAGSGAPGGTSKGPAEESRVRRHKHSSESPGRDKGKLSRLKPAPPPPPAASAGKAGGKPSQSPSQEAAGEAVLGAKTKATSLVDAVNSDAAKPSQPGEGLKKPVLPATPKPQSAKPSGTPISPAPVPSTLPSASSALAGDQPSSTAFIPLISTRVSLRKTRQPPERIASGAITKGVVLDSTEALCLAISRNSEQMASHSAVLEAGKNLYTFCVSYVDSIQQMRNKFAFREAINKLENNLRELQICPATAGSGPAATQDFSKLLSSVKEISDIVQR
# [18] = Cmax in cynomolgus monkey at 5 mg/kg, iv; format: ADME, organism-based, Macaca fascicularis; parameters: dose 5 mg/kg, route intravenous; details: in vivo
# [19] = Plasma clearance in Beagle dog at 5 mg/kg, iv; format: ADME, organism-based, Canis lupus familiaris; parameters: dose 5 mg/kg, route intravenous
# [20] = biological target: Tyrosine-protein kinase Lyn (Homo sapiens, UniProt P07948); assay: Inhibition of LYN (unknown origin) after 60 mins
# [21] = Cmax in Beagle dog at 5 mg/kg, iv; format: ADME, organism-based, Canis lupus familiaris; parameters: dose 5 mg/kg, route intravenous; details: in vivo
# [22] = Half life in Beagle dog at 5 mg/kg, iv; format: ADME, organism-based, Canis lupus familiaris; parameters: dose 5 mg/kg, route intravenous; details: in vivo
# [23] = Oral bioavailability in BALB/c mouse at 20 mg/kg; format: ADME, organism-based; details: in vivo
# [24] = biological target: Testis-specific serine/threonine-protein kinase 1 (Homo sapiens, UniProt Q9BXA7); assay: Inhibition of STK22D (unknown origin) after 60 mins
# Testis-specific serine/threonine-protein kinase 1, sequence (Q9BXA7 whole entry): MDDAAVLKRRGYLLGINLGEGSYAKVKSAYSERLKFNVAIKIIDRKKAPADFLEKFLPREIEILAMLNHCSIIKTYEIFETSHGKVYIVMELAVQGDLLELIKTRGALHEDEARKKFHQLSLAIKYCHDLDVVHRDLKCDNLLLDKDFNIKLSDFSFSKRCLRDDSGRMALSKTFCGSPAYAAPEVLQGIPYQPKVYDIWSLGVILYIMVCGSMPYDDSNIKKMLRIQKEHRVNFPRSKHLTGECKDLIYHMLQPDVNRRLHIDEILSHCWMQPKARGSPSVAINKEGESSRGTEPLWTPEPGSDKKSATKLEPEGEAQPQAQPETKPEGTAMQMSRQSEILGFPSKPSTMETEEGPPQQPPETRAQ
# [25] = Intrinsic clearance in human liver microsomes; format: ADME, Microsome; details: read-out: CLH
# [26] = biological target: High affinity nerve growth factor receptor (Homo sapiens, UniProt P04629); assay: Inhibition of TEL-fused TRKA (unknown origin) by cell-based assay
# High affinity nerve growth factor receptor, sequence (P04629 33-796 limits assumed): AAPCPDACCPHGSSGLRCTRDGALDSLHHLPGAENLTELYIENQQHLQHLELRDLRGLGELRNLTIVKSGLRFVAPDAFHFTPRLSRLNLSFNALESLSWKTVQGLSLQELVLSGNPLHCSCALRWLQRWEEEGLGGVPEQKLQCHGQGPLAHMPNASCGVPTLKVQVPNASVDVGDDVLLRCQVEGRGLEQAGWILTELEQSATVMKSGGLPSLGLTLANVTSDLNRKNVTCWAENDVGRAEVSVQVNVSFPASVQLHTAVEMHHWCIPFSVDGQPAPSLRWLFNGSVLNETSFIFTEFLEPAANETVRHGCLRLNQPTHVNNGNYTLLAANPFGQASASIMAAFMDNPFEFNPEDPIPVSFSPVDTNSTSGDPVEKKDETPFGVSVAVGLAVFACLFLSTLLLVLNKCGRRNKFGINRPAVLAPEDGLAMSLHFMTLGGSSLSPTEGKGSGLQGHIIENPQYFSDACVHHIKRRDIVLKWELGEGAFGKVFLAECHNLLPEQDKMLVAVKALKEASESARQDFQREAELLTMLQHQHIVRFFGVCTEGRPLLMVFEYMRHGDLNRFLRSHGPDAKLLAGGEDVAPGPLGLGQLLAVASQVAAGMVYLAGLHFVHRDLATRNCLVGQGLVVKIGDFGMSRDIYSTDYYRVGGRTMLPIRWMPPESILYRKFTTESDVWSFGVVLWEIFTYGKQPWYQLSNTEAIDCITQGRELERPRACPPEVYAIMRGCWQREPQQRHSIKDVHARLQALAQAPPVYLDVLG
# [27] = Inhibition of AKT (unknown origin) after 60 mins; parameters: species or system Homo sapiens
# [28] = biological target: Serine/threonine-protein kinase PAK 2 (Homo sapiens, UniProt Q13177); assay: Inhibition of PAK2 (unknown origin) after 60 mins
# Serine/threonine-protein kinase PAK 2, sequence (Q13177 whole entry): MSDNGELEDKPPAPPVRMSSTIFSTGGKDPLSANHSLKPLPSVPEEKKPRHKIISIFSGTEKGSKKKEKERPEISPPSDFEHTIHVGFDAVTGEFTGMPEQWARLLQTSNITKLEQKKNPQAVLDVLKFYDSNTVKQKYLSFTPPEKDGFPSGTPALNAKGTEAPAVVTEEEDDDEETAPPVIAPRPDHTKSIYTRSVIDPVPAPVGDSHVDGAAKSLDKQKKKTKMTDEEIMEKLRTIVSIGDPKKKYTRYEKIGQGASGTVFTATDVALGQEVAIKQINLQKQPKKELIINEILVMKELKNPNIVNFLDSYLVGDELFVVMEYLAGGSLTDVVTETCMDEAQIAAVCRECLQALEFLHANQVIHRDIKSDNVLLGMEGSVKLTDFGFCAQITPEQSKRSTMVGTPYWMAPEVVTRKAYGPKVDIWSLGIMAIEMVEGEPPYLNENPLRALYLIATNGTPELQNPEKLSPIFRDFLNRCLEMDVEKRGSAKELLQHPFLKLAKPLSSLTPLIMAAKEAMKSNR
# [29] = Oral bioavailability in cynomolgus monkey at 60 mg/kg; format: ADME, organism-based, Macaca fascicularis; details: in vivo
# [30] = Volume of distribution at steady state in Sprague-Dawley rat at 3 mg/kg, iv; format: ADME, organism-based; parameters: dose 3 mg/kg, route intravenous; details: in vivo, read-out: Vdss
# Rattus norvegicus [31] = assay: Inhibition of ALK-mediated STAT3 phosphorylation in human KARPAS299 cells xenografted in Rowett nude rat at 50 mg/kg, po after 72 hrs Western blotting analysis relative to control; format: functional; details: KARPAS-299, 72 h
# [32] = biological target: T1, Hepatocyte growth factor receptor
# Description: Inhibition of cMET (unknown origin) after 60 mins
# KARPAS-299 [33] = assay: Antitumor activity against human KARPAS299 cells xenografted in Rowett nude rat assessed as tumor growth inhibition factor at 6.25 mg/kg, po for 14 days measured 7 to 72 hrs post dosing relative to control; format: functional
# [34] = biological target: Glycogen synthase kinase-3 beta (Homo sapiens, UniProt P49841); assay: Inhibition of GSK3beta (unknown origin) after 60 mins
# Glycogen synthase kinase-3 beta, sequence (P49841 whole entry, the tested form may be a part): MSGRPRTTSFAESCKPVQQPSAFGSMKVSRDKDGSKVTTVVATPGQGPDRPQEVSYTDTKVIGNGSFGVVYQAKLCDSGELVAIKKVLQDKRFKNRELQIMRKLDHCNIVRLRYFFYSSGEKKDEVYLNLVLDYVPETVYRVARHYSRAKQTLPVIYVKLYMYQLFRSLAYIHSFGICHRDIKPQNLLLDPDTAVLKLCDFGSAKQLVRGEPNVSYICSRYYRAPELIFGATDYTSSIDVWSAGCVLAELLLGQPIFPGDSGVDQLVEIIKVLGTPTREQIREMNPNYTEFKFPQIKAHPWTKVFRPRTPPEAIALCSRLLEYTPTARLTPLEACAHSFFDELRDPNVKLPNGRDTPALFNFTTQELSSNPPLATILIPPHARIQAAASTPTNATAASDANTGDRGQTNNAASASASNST
# [35] = biological target: Tyrosine-protein kinase JAK2 (Homo sapiens, UniProt O60674); assay: Inhibition of TEL-fused JAK2 (unknown origin) by cell-based assay
# [36] = biological target: Transcription factor ETV6 (Homo sapiens, UniProt P41212); assay: Inhibition of wild-type TEL (unknown origin) by cell-based assay
# Rattus norvegicus [37] = assay: Toxicity in po dosed Rowett nude rat xenografted with human KARPAS299 cells assessed as body weight loss at 6.25 to 50 mg/kg, po; format: organism-based, KARPAS-299; parameters: dose 6.25-50 mg/kg, route oral; details: in vivo
# [38] = Tmax in Sprague-Dawley rat at 3 mg/kg, iv; format: ADME, organism-based; parameters: dose 3 mg/kg, route intravenous; details: in vivo
# [39] = biological target: Receptor-type tyrosine-protein kinase FLT3 (Homo sapiens, UniProt P36888); assay: Inhibition of TEL-fused FLT3 (unknown origin) by cell-based assay
# Cytochrome P450 3A4 = Cytochrome P450 3A4 (Homo sapiens, UniProt P08684); assay: Inhibition of CYP3A4 in human liver microsomes using midazolam as substrate by LC-MS/MS analysis; format: ADME, Microsome
# [40] = AUC in cynomolgus monkey at 5 mg/kg, iv; format: ADME, organism-based, Macaca fascicularis; parameters: dose 5 mg/kg, route intravenous; details: plasma
# [41] = Inhibition of Aurora kinase (unknown origin) after 60 mins; parameters: species or system Homo sapiens
# KARPAS-299 [42] = details: Homo sapiens
# Description: Antitumor activity against human KARPAS299 cells xenografted in po dosed Rowett nude rat assessed as tumor growth inhibition administered for 14 days measured 7 to 72 hrs post dosing
# Canis familiaris = species on record: Canis familiaris; assay: Cardiotoxicity in dog assessed as QTc prolongation; format: toxicity, organism-based, Canis lupus familiaris; details: in vivo
# [43] = biological target: Tyrosine-protein kinase BTK (Homo sapiens, UniProt Q06187); assay: Inhibition of BTK (unknown origin) after 60 mins
# KARPAS-299 [44] = assay: Antitumor activity against human KARPAS299 cells xenografted in Rowett nude rat assessed as tumor regression at 25 mg/kg, po for 14 days measured 7 to 72 hrs post dosing relative to control; format: functional
# Rattus norvegicus [45] = assay: Toxicity in po dosed Rowett nude rat xenografted with human NCI-H2228 cells assessed as body weight loss at 5 to 25 mg/kg, po; format: organism-based; parameters: dose 5-25 mg/kg, route oral; details: in vivo
# [46] = Volume of distribution at steady state in BALB/c mouse at 5 mg/kg, iv; format: ADME, organism-based; parameters: dose 5 mg/kg, route intravenous; details: in vivo, read-out: Vdss
# [47] = biological target: MAP kinase-interacting serine/threonine-protein kinase 2 (Homo sapiens, UniProt Q9HBH9); assay: Inhibition of MKNK2 (unknown origin) after 60 mins
# MAP kinase-interacting serine/threonine-protein kinase 2, sequence (Q9HBH9 whole entry): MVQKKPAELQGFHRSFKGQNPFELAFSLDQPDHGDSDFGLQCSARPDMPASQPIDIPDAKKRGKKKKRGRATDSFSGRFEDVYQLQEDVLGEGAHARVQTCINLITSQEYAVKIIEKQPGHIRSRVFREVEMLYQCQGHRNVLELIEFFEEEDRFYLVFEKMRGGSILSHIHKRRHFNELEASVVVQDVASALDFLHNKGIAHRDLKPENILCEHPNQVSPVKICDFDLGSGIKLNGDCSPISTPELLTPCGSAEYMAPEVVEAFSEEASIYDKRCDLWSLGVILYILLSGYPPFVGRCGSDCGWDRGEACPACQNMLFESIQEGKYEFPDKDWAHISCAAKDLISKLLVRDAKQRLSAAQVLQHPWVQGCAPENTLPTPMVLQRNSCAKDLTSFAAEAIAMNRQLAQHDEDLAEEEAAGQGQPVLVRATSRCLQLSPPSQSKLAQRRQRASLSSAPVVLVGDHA
# [48] = Tmax in BALB/c mouse at 5 mg/kg, iv; format: ADME, organism-based; parameters: dose 5 mg/kg, route intravenous; details: in vivo
# [49] = biological target: Tyrosine-protein kinase JAK3 (Homo sapiens, UniProt P52333); assay: Inhibition of JAK3 (unknown origin) after 60 mins
smiles,measurement,setting,value
Cc1cc(Nc2ncc(Cl)c(Nc3ccccc3S(=O)(=O)C(C)C)n2)c(OC(C)C)cc1C1CCNCC1 [CERITINIB],IC50,[1],0.26 µM
same,bioavailability,[2],66%
same,IC50,[3],3.05 µM
same,IC50,BaF3,2.48 µM
same,AUC,[4],18.1 µM·h
same,Vd,[5],15 L/kg
same,AUC,[6],6.09 µM·h
same,Tmax,[7],1.8 min
same,IC50,[8],4.21 µM
same,half-life,[9],1560 min
same,TGI,NCI-H2228,Dose-dependent effect
same,Drug uptake,[10],Active
same,IC50,[11],1.34 µM
same,AUC,[12],5.63 µM·h
same,MTD,[13],5 mg/kg
same,IC50,[14],0.95 µM
same,Activity,Rhesus monkey,Non-toxic
same,microsomal CLint,[15],15 µL/min/mg
same,IC50,[16],1.69 µM
same,IC50,[17],1.25 µM
same,Cmax,[18],2530 nM
same,clearance,[19],9.2 mL/min/kg
same,IC50,[20],0.84 µM
same,Cmax,[21],2330 nM
same,half-life,[22],1260 min
same,bioavailability,[23],55%
same,IC50,[24],0.023 µM
same,microsomal CLint,[25],19 µL/min/mg
same,IC50,[26],2.73 µM
same,IC50,[27],> 10 µM
same,IC50,[28],> 10 µM
same,bioavailability,[29],56%
same,Vd,[30],21.2 L/kg
same,inhibition in vivo at 50 mg/kg,Rattus norvegicus [31],80%
same,IC50,[32],3.17 µM
same,T/C,KARPAS-299 [33],74%
same,IC50,[34],> 10 µM
same,IC50,[35],2.16 µM
same,IC50,[36],3.25 µM
same,Activity,Rattus norvegicus [37],Non-toxic
same,Tmax,[38],1.8 min
same,IC50,[39],3.14 µM
same,INH,Cytochrome P450 3A4,1.5 µM
same,AUC,[40],11.3 µM·h
same,IC50,[41],0.66 µM
same,TGI,KARPAS-299 [42],Dose-dependent effect
same,Activity,Canis familiaris,Non-toxic
same,IC50,[43],3.36 µM
same,T/C,KARPAS-299 [44],-33%
same,Activity,Rattus norvegicus [45],Non-toxic
same,Vd,[46],9.7 L/kg
same,IC50,[47],2.24 µM
same,Tmax,[48],1.8 min
same,IC50,[49],7.92 µM
